Assay results taken from patent publication US8710065B2, “Tricyclic inhibitors of kinases” (AbbVie Inc., priority 2011, dated 2014).

The compounds below were run against T1, GST-tagged-Wee1 kinase (Homo sapiens, UniProt P30291) (assay: Wee1 time-resolved fluorescence equilibrium binding assay (displacement of Oregon Green-labeled ATP-competitive kinase probe)). Details: read-out: Wee-1 inhibition (Ki).
T1 construct: purchased Carnabio (Carna Biosciences) 05-177
Description: Wee1 kinase was assayed using a time-resolved fluorescence equilibrium binding assay monitoring displacement of a rapidly reversible Oregon Green-labeled ATP-competitive kinase probe (N-(2-(2-(2-(4-(4-(5-chloro-4-(2-(1-hydroxycyclobutyl)thiazol-5-yl)-1H-pyrrolo[2,3-b]pyridin-2-yl)phenyl)piperazin-1-yl)ethoxy)ethoxy)ethyl)-2′,7′-difluoro-3′,6′-dihydroxy-3-oxo-3H-spiro[isobenzofuran-1,9′-xanthene]-5-carboxamide) by competitive Wee1 inhibitors.
Table 1 depicts enzyme inhibition data (Ki) for exemplary compounds.

T1 sequence (P30291 whole entry): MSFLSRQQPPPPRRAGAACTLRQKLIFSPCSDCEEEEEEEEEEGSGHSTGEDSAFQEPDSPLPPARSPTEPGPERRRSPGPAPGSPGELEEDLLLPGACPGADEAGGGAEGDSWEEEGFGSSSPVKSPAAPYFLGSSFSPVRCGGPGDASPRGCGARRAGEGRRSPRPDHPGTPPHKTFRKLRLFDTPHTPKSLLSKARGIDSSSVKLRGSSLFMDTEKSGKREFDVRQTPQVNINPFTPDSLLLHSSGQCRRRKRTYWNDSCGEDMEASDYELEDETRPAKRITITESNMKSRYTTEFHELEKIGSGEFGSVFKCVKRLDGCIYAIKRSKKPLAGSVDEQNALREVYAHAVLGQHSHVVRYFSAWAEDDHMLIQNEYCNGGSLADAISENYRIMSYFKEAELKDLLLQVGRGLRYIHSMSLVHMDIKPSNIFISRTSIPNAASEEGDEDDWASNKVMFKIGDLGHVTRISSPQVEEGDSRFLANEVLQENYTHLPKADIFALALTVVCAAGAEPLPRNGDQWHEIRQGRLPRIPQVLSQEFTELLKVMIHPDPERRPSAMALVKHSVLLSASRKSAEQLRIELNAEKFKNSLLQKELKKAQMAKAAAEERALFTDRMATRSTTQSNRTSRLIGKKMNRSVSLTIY

Ki [nM] | SMILES
< 10 | CN1CCN(c2ccc(Nc3ncc4c(=O)n(-c5ccccc5Cl)c5nccn5c4n3)cc2)CC1 [Example 1, 6-(2-chlorophenyl)-2-{[4-(4-methylpiperazin-1-yl)phenyl]amino}imidazo[1,2-a]pyrimido[5,4-e]pyrimidin-5(6H)-one]
10 to 100 | O=c1c2cnc(Nc3ccccc3)nc2n2ccnc2n1-c1ccccc1Cl [Example 2, 2-anilino-6-(2-chlorophenyl)imidazo[1,2-a]pyrimido[5,4-e]pyrimidin-5(6H)-one]
> 100 | O=c1c2cnc(Nc3ccncc3)nc2n2ccnc2n1-c1ccccc1Cl [Example 3, 6-(2-chlorophenyl)-2-(pyridin-4-ylamino)imidazo[1,2-a]pyrimido[5,4-e]pyrimidin-5(6H)-one]
< 10 | CN1Cc2cc(Nc3ncc4c(=O)n(-c5ccccc5Cl)c5nccn5c4n3)ccc2C2(CC2)C1 [Example 4, 6-(2-chlorophenyl)-2-[(2′-methyl-2′,3′-dihydro-1′H-spiro[cyclopropane-1,4′-isoquinolin]-7′-yl)amino]imidazo[1,2-a]pyrimido[5,4-e]pyrimidin-5(6H)-one]
10 to 100 | O=c1c2cnc(Nc3ccc4c(c3)CCCC4)nc2n2ccnc2n1-c1ccccc1Cl [Example 5, 6-(2-chlorophenyl)-2-(5,6,7,8-tetrahydronaphthalen-2-ylamino)imidazo[1,2-a]pyrimido[5,4-e]pyrimidin-5(6H)-one]
< 10 | CN1CCN(c2cccc(Nc3ncc4c(=O)n(-c5ccccc5Cl)c5nccn5c4n3)c2)CC1 [Example 6, 6-(2-chlorophenyl)-2-{[3-(4-methylpiperazin-1-yl)phenyl]amino}imidazo[1,2-a]pyrimido[5,4-e]pyrimidin-5(6H)-one]
10 to 100 | O=c1c2cnc(Nc3ccc(C4CCCCC4)cc3)nc2n2ccnc2n1-c1ccccc1Cl [Example 7, 6-(2-chlorophenyl)-2-[(4-cyclohexylphenyl)amino]imidazo[1,2-a]pyrimido[5,4-e]pyrimidin-5(6H)-one]
< 10 | O=c1c2cnc(Nc3ccc(N4CCCCC4)cc3)nc2n2ccnc2n1-c1ccccc1Cl [Example 8, 6-(2-chlorophenyl)-2-{[4-(piperidin-1-yl)phenyl]amino}imidazo[1,2-a]pyrimido[5,4-e]pyrimidin-5(6H)-one]
< 10 | O=c1c2cnc(Nc3ccc(CN4CCCC4)cc3)nc2n2ccnc2n1-c1ccccc1Cl [Example 9, 6-(2-chlorophenyl)-2-{[4-(pyrrolidin-1-ylmethyl)phenyl]amino}imidazo[1,2-a]pyrimido[5,4-e]pyrimidin-5(6H)-one]
< 10 | O=c1c2cnc(Nc3ccc(N4CCOCC4)cc3)nc2n2ccnc2n1-c1ccccc1Cl [Example 10, 6-(2-chlorophenyl)-2-{[4-(morpholin-4-yl)phenyl]amino}imidazo[1,2-a]pyrimido[5,4-e]pyrimidin-5(6H)-one]
10 to 100 | O=c1c2cnc(Nc3cccc(CN4CCCC4)c3)nc2n2ccnc2n1-c1ccccc1Cl [Example 11, 6-(2-chlorophenyl)-2-{[3-(pyrrolidin-1-ylmethyl)phenyl]amino}imidazo[1,2-a]pyrimido[5,4-e]pyrimidin-5(6H)-one]
< 10 | CC(=O)N1CCc2ccc(Nc3ncc4c(=O)n(-c5ccccc5Cl)c5nccn5c4n3)cc21 [Example 12, 2-[(1-acetyl-2,3-dihydro-1H-indol-6-yl)amino]-6-(2-chlorophenyl)imidazo[1,2-a]pyrimido[5,4-e]pyrimidin-5(6H)-one]
< 10 | CC(=O)N1CCN(c2ccc(Nc3ncc4c(=O)n(-c5ccccc5Cl)c5nccn5c4n3)cc2)CC1 [Example 13, 2-{[4-(4-acetylpiperazin-1-yl)phenyl]amino}-6-(2-chlorophenyl)imidazo[1,2-a]pyrimido[5,4-e]pyrimidin-5(6H)-one]
< 10 | Cc1ccccc1-n1c(=O)c2cnc(Nc3ccc(N4CCN(C)CC4)cc3)nc2n2ccnc12 [Example 14, 6-(2-methylphenyl)-2-{[4-(4-methylpiperazin-1-yl)phenyl]amino}imidazo[1,2-a]pyrimido[5,4-e]pyrimidin-5(6H)-one]
10 to 100 | CN1CCN(c2ccc(Nc3ncc4c(=O)n(-c5ccccc5C(F)(F)F)c5nccn5c4n3)cc2)CC1 [Example 15, 2-{[4-(4-methylpiperazin-1-yl)phenyl]amino}-6-[2-(trifluoromethyl)phenyl]imidazo[1,2-a]pyrimido[5,4-e]pyrimidin-5(6H)-one]
10 to 100 | COc1ccccc1-n1c(=O)c2cnc(Nc3ccc(N4CCN(C)CC4)cc3)nc2n2ccnc12 [Example 16, 6-(2-methoxyphenyl)-2-{[4-(4-methylpiperazin-1-yl)phenyl]amino}imidazo[1,2-a]pyrimido[5,4-e]pyrimidin-5(6H)-one]

Ki [nM] | SMILES
> 100 | COc1cc(N2CCN(C)CC2)ccc1Nc1ncc2c(=O)n(-c3ccccc3Cl)c3nccn3c2n1 [Example 17, 6-(2-chlorophenyl)-2-{[2-methoxy-4-(4-methylpiperazin-1-yl)phenyl]amino}imidazo[1,2-a]pyrimido[5,4-e]pyrimidin-5(6H)-one]
10 to 100 | CN1CCCc2ccc(Nc3ncc4c(=O)n(-c5ccccc5Cl)c5nccn5c4n3)cc21 [Example 18, 6-(2-chlorophenyl)-2-[(1-methyl-1,2,3,4-tetrahydroquinolin-7-yl)amino]imidazo[1,2-a]pyrimido[5,4-e]pyrimidin-5(6H)-one]
10 to 100 | O=C1COc2ccc(Nc3ncc4c(=O)n(-c5ccccc5Cl)c5nccn5c4n3)cc2N1 [Example 19, 6-(2-chlorophenyl)-2-[(3-oxo-3,4-dihydro-2H-1,4-benzoxazin-6-yl)amino]imidazo[1,2-a]pyrimido[5,4-e]pyrimidin-5(6H)-one]
10 to 100 | CC(C)(C)OC(=O)N1CCc2ccc(Nc3ncc4c(=O)n(-c5ccccc5Cl)c5nccn5c4n3)cc2C1 [Example 20, tert-butyl 7-{[6-(2-chlorophenyl)-5-oxo-5,6-dihydroimidazo[1,2-a]pyrimido[5,4-e]pyrimidin-2-yl]amino}-3,4-dihydroisoquinoline-2(1H)-carboxylate]
< 10 | O=c1c2cnc(Nc3ccc4c(c3)CNCC4)nc2n2ccnc2n1-c1ccccc1Cl [Example 21, 6-(2-chlorophenyl)-2-(1,2,3,4-tetrahydroisoquinolin-7-ylamino)imidazo[1,2-a]pyrimido[5,4-e]pyrimidin-5(6H)-one]
< 10 | Cc1cc(Nc2ncc3c(=O)n(-c4ccccc4Cl)c4nccn4c3n2)ccc1N1CCN(C)CC1 [Example 22, 6-(2-chlorophenyl)-2-{[3-methyl-4-(4-methylpiperazin-1-yl)phenyl]amino}imidazo[1,2-a]pyrimido[5,4-e]pyrimidin-5(6H)-one]
> 100 | C=CCn1c(=O)c2cnc(Nc3ccc(N4CCN(C)CC4)cc3)nc2n2ccnc12 [Example 23, 6-allyl-2-{[4-(4-methylpiperazin-1-yl)phenyl]amino}imidazo[1,2-a]pyrimido[5,4-e]pyrimidin-5(6H)-one]
> 100 | CN1CCN(c2ccc(Nc3ncc4c(=O)n(C5CCCCC5)c5nccn5c4n3)cc2)CC1 [Example 24, 6-cyclohexyl-2-{[4-(4-methylpiperazin-1-yl)phenyl]amino}imidazo[1,2-a]pyrimido[5,4-e]pyrimidin-5(6H)-one]
< 10 | Cc1cnc2n(-c3ccccc3Cl)c(=O)c3cnc(Nc4ccc(N5CCN(C)CC5)cc4)nc3n12 [Example 25, 6-(2-chlorophenyl)-9-methyl-2-{[4-(4-methylpiperazin-1-yl)phenyl]amino}imidazo[1,2-a]pyrimido[5,4-e]pyrimidin-5(6H)-one]
10 to 100 | CN1CCN(c2ccc(Nc3ncc4c(=O)n(-c5ccccc5Cl)c5nncn5c4n3)cc2)CC1 [Example 26, 6-(2-chlorophenyl)-2-{[4-(4-methylpiperazin-1-yl)phenyl]amino}pyrimido[5,4-e][1,2,4]triazolo[4,3-a]pyrimidin-5(6H)-one]
10 to 100 | Cc1nnc2n(-c3ccccc3Cl)c(=O)c3cnc(Nc4ccc(N5CCN(C)CC5)cc4)nc3n12 [Example 27, 6-(2-chlorophenyl)-9-methyl-2-{[4-(4-methylpiperazin-1-yl)phenyl]amino}pyrimido[5,4-e][1,2,4]triazolo[4,3-a]pyrimidin-5(6H)-one]
10 to 100 | CN1CCN(c2ccc(Nc3ncc4c(=O)n(-c5ccccc5Cl)c5nnnn5c4n3)cc2)CC1 [Example 28, 4-(2-chlorophenyl)-8-{[4-(4-methylpiperazin-1-yl)phenyl]amino}pyrimido[5,4-e]tetrazolo[1,5-a]pyrimidin-5(4H)-one]
< 10 | CC(C)N1CCN(c2ccc(Nc3ncc4c(=O)n(-c5ccccc5Cl)c5nccn5c4n3)cc2)CC1 [Example 29, 6-(2-chlorophenyl)-2-({4-[4-(propan-2-yl)piperazin-1-yl]phenyl}amino)imidazo[1,2-a]pyrimido[5,4-e]pyrimidin-5(6H)-one]
< 10 | O=c1c2cnc(Nc3ccc(N4CCN(CC5CCCCC5)CC4)cc3)nc2n2ccnc2n1-c1ccccc1Cl [Example 30, 6-(2-chlorophenyl)-2-({4-[4-(cyclohexylmethyl)piperazin-1-yl]phenyl}amino)imidazo[1,2-a]pyrimido[5,4-e]pyrimidin-5(6H)-one]
10 to 100 | N#Cc1cccc(CN2CCN(c3ccc(Nc4ncc5c(=O)n(-c6ccccc6Cl)c6nccn6c5n4)cc3)CC2)c1 [Example 31, 3-{[4-(4-{[6-(2-chlorophenyl)-5-oxo-5,6-dihydroimidazo[1,2-a]pyrimido[5,4-e]pyrimidin-2-yl]amino}phenyl)piperazin-1-yl]methyl}benzonitrile]
< 10 | CN1CCN(c2ccc(Nc3ncc4c(=O)n(-c5ccccc5Cl)c5nccn5c4n3)cc2Cl)CC1 [Example 32, 2-{[3-chloro-4-(4-methylpiperazin-1-yl)phenyl]amino}-6-(2-chlorophenyl)imidazo[1,2-a]pyrimido[5,4-e]pyrimidin-5(6H)-one]
